Assay [1] deals with Cathepsin S (Homo sapiens, UniProt P25774). Kind of assay: Cathepsin S inhibition assay (fluorogenic peptide substrate). As to conditions: Table II, compounds of Formula I; read-out: Ki Cat. S. The format is biochemical. An outline of the steps: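 Ki values come from nonlinear fitting of inhibited hydrolysis rates, taking free and total inhibitor concentrations as equal. Rates measured as rising fluorescence at 380/450 nm after reaction start with 50 μM final acetyl-HPVK-aminocarbamoylcoumarin.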
Chain of Cathepsin S (P25774 115-331, species assumed): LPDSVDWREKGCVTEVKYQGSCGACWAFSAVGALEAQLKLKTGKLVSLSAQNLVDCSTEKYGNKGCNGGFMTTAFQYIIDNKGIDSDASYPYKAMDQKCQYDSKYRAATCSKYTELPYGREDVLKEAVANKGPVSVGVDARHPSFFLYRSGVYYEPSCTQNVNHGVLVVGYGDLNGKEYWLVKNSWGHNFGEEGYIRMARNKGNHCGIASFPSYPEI

For assay [2], the target named is T1, Cathepsin K (Homo sapiens, UniProt P43235).
T1 sequence (P43235 115-329): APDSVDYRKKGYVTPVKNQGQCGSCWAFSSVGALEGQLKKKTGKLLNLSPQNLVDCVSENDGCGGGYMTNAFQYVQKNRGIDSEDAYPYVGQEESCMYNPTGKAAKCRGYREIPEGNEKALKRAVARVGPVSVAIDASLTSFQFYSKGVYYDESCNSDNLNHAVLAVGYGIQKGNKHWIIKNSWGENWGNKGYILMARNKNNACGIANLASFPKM
Kind of assay: Cathepsin K inhibition assay (fluorogenic peptide substrate); selectivity ratio vs cathepsin S. The format is biochemical. As to conditions: ratio of cathepsin K inhibition constant to cathepsin S inhibition constant; Table II. An outline of the steps: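 Fluorogenic kinetic assay, started with acetyl-Lys-His-Pro-Lys-aminocarbamoylcoumarin at 40 μM final, hydrolysis followed at ex 380/em 450 nm. Apparent inhibition constants from progress curves, converted to competitive inhibition constants. Selectivity expressed as isozyme inhibition constant divided by cathepsin S inhibition constant.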

`O=C(N[C@@H](CC1CCCCC1)C(=O)NCCNc1ccc(OC(F)(F)F)cc1)C1CCCN(c2ncc(Br)cn2)C1` (stereo partly drawn) [Compound 93, 1-(5-Bromo-pyrimidin-2-yl)-piperidine-3-carboxylic acid (S)-{2-cyclohexyl-1-[2-(4-trifluoromethoxy-phenylamino)-ethylcarbamoyl]-ethyl}-amide]: the Ki in assay [1] was less than 1000 nM. In assay [2], the “Selectivity for Cat. S over Cat. K” value is on record as “+++ (+++, >1000)”.

Take `Cc1cc(C)nc(N(C)c2cccc(C(=O)N[C@@H](CC3CCCCC3)C(=O)NCCNc3ccc(OC(F)(F)F)cc3)c2)n1` [Compound 71, N-(S)-{2-cyclohexyl-1-[2-(4-trifluoromethoxy-phenylamino)-ethylcarbamoyl]-ethyl}-3-[(4,6-dimethyl-pyrimidin-2-yl)-methyl-amino]-benzamide]: in assay [1], the Ki is less than 100 nM. Moreover, the “Selectivity for Cat. S over Cat. K” value in assay [2] is “++ (++, >100)”.

As to `O=C(N[C@@H](CC1CCCCC1)C(=O)NCCNc1ccc(F)cc1)C1CC1` [Compound 298, Cyclopropanecarboxylic acid (S)-{2-cyclohexyl-1-[2-(4-fluoro-phenylamino)-ethylcarbamoyl]-ethyl}-amide], the Ki in assay [1] was less than 100 nM. Besides, in assay [2], the “Selectivity for Cat. S over Cat. K” value is given as “++ (++, >100)”.

For `COc1ccc(NCCNC(=O)[C@H](CCC2CCCCC2)NC(=O)c2ccc(OCc3ccccc3)cc2)cc1` [Compound 129, (S)-4-Benzyloxy-N-{3-cyclohexyl-1-[2-(4-methoxy-phenylamino)-ethylcarbamoyl]-propyl}-benzamide], the inhibition constant Ki in assay [1] was less than 10000 nM. Moreover, the “Selectivity for Cat. S over Cat. K” value in assay [2] is reported as “+ (+, >10)”.

For `O=C(Cc1c[nH]c2ccccc12)NC(CC1CCCCC1)C(=O)NCCNc1ccc(F)cc1` (stereo not drawn) [Compound 83, 3-Cyclohexyl-N-[2-(4-fluoro-phenylamino)-ethyl]-2-(2-1H-indol-3-yl-acetylamino)-propionamide], in assay [1], the Ki was less than 100 nM. Also, in assay [2], the “Selectivity for Cat. S over Cat. K” value is listed as “++ (++, >100)”.

For the molecule `COc1ccc(NCCNC(=O)[C@H](CCCC2CCCCC2)NC(=O)c2cccc(C)c2)cc1` [Compound 203, (S)-N-{4-Cyclohexyl-1-[2-(4-methoxy-phenylamino)-ethylcarbamoyl]-butyl}-3-methyl-benzamide], in assay [1], the Ki was less than 100 nM. Also, the “Selectivity for Cat. S over Cat. K” value in assay [2] is on record as “+++ (+++, >1000)”.

As to `COc1ccc(NCCNC(=O)[C@H](CCC2CCCCC2)NC(=O)c2sc(N)nc2C)cc1` [Compound 133, (S)-2-Amino-4-methyl-thiazole-5-carboxylic acid {3-cyclohexyl-1-[2-(4-methoxy-phenylamino)-ethylcarbamoyl]-propyl}-amide], the Ki in assay [1] was less than 1000 nM. For the same molecule, the “Selectivity for Cat. S over Cat. K” value in assay [2] is reported as “++ (++, >100)”.

Consider `COc1ccc(NCCNC(=O)[C@H](CCC2CCCCC2)NC(=O)c2cc3cc(Cl)ccc3[nH]2)cc1` [Compound 131, (S)-5-Chloro-1H-indole-2-carboxylic acid {3-cyclohexyl-1-[2-(4-methoxy-phenylamino)-ethylcarbamoyl]-propyl}-amide], for which the Ki in assay [1] is less than 10000 nM. Further, the “Selectivity for Cat. S over Cat. K” value in assay [2] is listed as “+ (+, >10)”.

In the case of `Cc1oc(S(=O)(=O)N2CCCC2)cc1C(=O)N[C@@H](CC1CCCCC1)C(=O)NCCNc1ccc(OC(F)(F)F)cc1` [Compound 40, 2-Methyl-5-(pyrrolidine-1-sulfonyl)-furan-3-carboxylic acid (S)-{2-cyclohexyl-1-[2-(4-trifluoromethoxy-phenylamino)-ethylcarbamoyl]-ethyl}-amide], the Ki in assay [1] was less than 1000 nM. For the same molecule, the “Selectivity for Cat. S over Cat. K” value in assay [2] is listed as “+ (+, >10)”.

As to `O=C(Cc1cccc(Cl)c1)N[C@@H](CC1CCCCC1)C(=O)NCCNc1ccc(F)cc1` [Compound 302, 2-(S)-[2-(3-Chloro-phenyl)-acetylamino]-3-cyclohexyl-N-[2-(4-fluoro-phenylamino)-ethyl]-propionamide], in assay [1], the inhibition constant (Ki) was less than 100 nM. Further, the “Selectivity for Cat. S over Cat. K” value in assay [2] is “++ (++, >100)”.

As for `COc1ccc(NCCNC(=O)[C@H](Cc2ccc(O)cc2)NC(=O)c2cccc(C)c2)cc1` [Compound 228, (S)-N-{2-(4-Hydroxy-phenyl)-1-[2-(4-methoxy-phenylamino)-ethylcarbamoyl]-ethyl}-3-methyl-benzamide], the Ki in assay [1] is less than 100 nM. In addition, the “Selectivity for Cat. S over Cat. K” value in assay [2] was “+++ (+++, >1000)”.

As for `O=C(N[C@@H](CC1CCCCC1)C(=O)NCCNc1ccc(OC(F)(F)F)cc1)c1ccc(-n2cncn2)cc1` [Compound 221, (S)-N-{2-Cyclohexyl-1-[2-(4-trifluoromethoxy-phenylamino)-ethylcarbamoyl]-ethyl}-4-[1,2,4]triazol-1-yl-benzamide], the Ki in assay [1] is less than 100 nM. The “Selectivity for Cat. S over Cat. K” value in assay [2] was “+ (+, >10)”.

As to `Cc1ccc(-c2ccc(C(=O)N[C@@H](CC3CCCCC3)C(=O)NCCNc3ccc(OC(F)(F)F)cc3)o2)cc1` [Compound 70, 5-p-Tolyl-furan-2-carboxylic acid (S)-{2-cyclohexyl-1-[2-(4-trifluoromethoxy-phenylamino)-ethylcarbamoyl]-ethyl}-amide], in assay [1], the inhibition constant Ki was less than 100 nM. Also, the “Selectivity for Cat. S over Cat. K” value in assay [2] is recorded as “+++ (+++, >1000)”.

`O=C(N[C@@H](CC1CCCCC1)C(=O)NCCNc1ccc(OC(F)(F)F)cc1)c1ccc(-c2ccccc2)s1` [Compound 62, 5-Phenyl-thiophene-2-carboxylic acid (S)-{2-cyclohexyl-1-[2-(4-trifluoromethoxy-phenylamino)-ethylcarbamoyl]-ethyl}-amide]: the Ki in assay [1] was less than 100 nM. For the same molecule, in assay [2], the “Selectivity for Cat. S over Cat. K” value was “++ (++, >100)”.

On to `CC(C)Oc1ccc(C(=O)N[C@@H](CC2CCCCC2)C(=O)NCCNc2ccc(OC(F)(F)F)cc2)cc1` [Compound 61, N-(S)-{2-cyclohexyl-1-[2-(4-trifluoromethoxy-phenylamino)-ethylcarbamoyl]-ethyl}-4-isopropoxy-benzamide], for which the Ki in assay [1] is less than 1000 nM. Further, in assay [2], the “Selectivity for Cat. S over Cat. K” value is “+ (+, >10)”.

Consider `COc1ccc(NCCNC(=O)[C@H](CC2CCCCC2)NC(=O)c2cc(C)ccc2Cl)cc1` [Compound 148, (S)-2-Chloro-N-{2-cyclohexyl-1-[2-(4-methoxy-phenylamino)-ethylcarbamoyl]-ethyl}-5-methyl-benzamide], for which the Ki in assay [1] was less than 100 nM. For the same molecule, the “Selectivity for Cat. S over Cat. K” value in assay [2] is reported as “+++ (+++, >1000)”.

On to `CC(=O)N1CCC(C(=O)N[C@@H](CC2CCCCC2)C(=O)NCCNc2ccc(OC(F)(F)F)cc2)CC1` [Compound 14, 1-Acetyl-piperidine-4-carboxylic acid (S)-{2-cyclohexyl-1-[2-(4-trifluoromethoxy-phenylamino)-ethylcarbamoyl]-ethyl}-amide], for which the Ki in assay [1] is less than 1000 nM. Moreover, in assay [2], the “Selectivity for Cat. S over Cat. K” value was “++ (++, >100)”.

As for `COc1ccc(NCCNC(=O)[C@H](Cc2ccc(Oc3cccc(C)c3C)cc2)NC(=O)c2cccc(C)c2)cc1` [Compound 7, (S)-N-{2-[4-(2,3-Dimethyl-phenoxy)-phenyl]-1-[2-(4-methoxy-phenylamino)-ethylcarbamoyl]-ethyl}-3-methyl-benzamide], the inhibitory constant (Ki) in assay [1] is less than 1000 nM. In assay [2], the “Selectivity for Cat. S over Cat. K” value is “++ (++, >100)”.

With `COc1ccc(NCCNC(=O)[C@H](CC2CCCCC2)NC(=O)c2cc(-c3ccc(OC)cc3)cs2)cc1` [Compound 191, (S)-4-(4-Methoxy-phenyl)-thiophene-2-carboxylic acid {2-cyclohexyl-1-[2-(4-methoxy-phenylamino)-ethylcarbamoyl]-ethyl}-amide], the Ki in assay [1] was less than 100 nM. Further, the “Selectivity for Cat. S over Cat. K” value in assay [2] is recorded as “+ (+, >10)”.

`C[C@H](C(=O)N[C@@H](CC1CCCCC1)C(=O)NCCNc1ccc(F)cc1)c1ccccc1` [Compound 294, N-(S)-{2-cyclohexyl-1-[2-(4-fluoro-phenylamino)-ethylcarbamoyl]-ethyl}-2-(S)-phenyl-propionamide]: the Ki in assay [1] was less than 100 nM. Also, the “Selectivity for Cat. S over Cat. K” value in assay [2] is given as “++ (++, >100)”.

As to `COc1ccc(NCCNC(=O)[C@H](CC2CCCCC2)NC(=O)c2cc(Cl)cc(Cl)c2)cc1` [Compound 179, (S)-3,5-Dichloro-N-{2-cyclohexyl-1-[2-(4-methoxy-phenylamino)-ethylcarbamoyl]-ethyl}-benzamide], in assay [1], the Ki is less than 100 nM. Further, in assay [2], the “Selectivity for Cat. S over Cat. K” value is reported as “+++ (+++, >1000)”.

For the molecule `COc1ccc(NCCNC(=O)[C@H](Cc2ccc(Br)cc2)NC(=O)c2cccc(C)c2)cc1` [Compound 241, (S)-N-{2-(4-Bromo-phenyl)-1-[2-(4-methoxy-phenylamino)-ethylcarbamoyl]-ethyl}-3-methyl-benzamide], in assay [1], the Ki is less than 100 nM. In addition, the “Selectivity for Cat. S over Cat. K” value in assay [2] is on record as “+++ (+++, >1000)”.

Take `COc1ccc(NCCNC(=O)[C@H](CC2CCCCC2)NC(=O)c2cc(OC)cc(OC)c2)cc1` [Compound 180, (S)-N-{2-Cyclohexyl-1-[2-(4-methoxy-phenylamino)-ethylcarbamoyl]-ethyl}-3,5-dimethoxy-benzamide]: in assay [1], the Ki was less than 100 nM. Also, the “Selectivity for Cat. S over Cat. K” value in assay [2] was “+ (+, >10)”.

In the case of `COc1ccc(NCCNC(=O)[C@H](Cc2ccc(Oc3cccc(C)c3)cc2)NC(=O)c2cccc(C)c2)cc1` [Compound 267, (S)-N-[1-[2-(4-Methoxy-phenylamino)-ethylcarbamoyl]-2-(4-m-tolyloxy-phenyl)-ethyl]-3-methyl-benzamide], the Ki in assay [1] was less than 100 nM. The “Selectivity for Cat. S over Cat. K” value in assay [2] was “+++ (+++, >1000)”.

The term Ki denotes the equilibrium dissociation constant of an inhibitor or competing ligand from its target.
